Measurements from paper PMC7252619 (PLoS ONE, 2020).
Where two headings read alike, the source gives them in different places.

What was measured:
[1] = target: T1, MLK4 (Homo sapiens, UniProt Q5TCX8); type: biochemical; conditions: for % Enzyme Activity (relative to DMSO controls), Data 1: replicate Data 1; for % Enzyme Activity (relative to DMSO controls), Data 2: replicate Data 2
T1 construct: purchased ReactionBiology

[2] = test system: human CD19+ B cells; test: B-cell assay: IgG production of ODN2006-stimulated primary B cells (AlphaLISA); type: cell-based
[3] = test system: human PBMCs (responder cells) with RPMI1788 stimulator cells; test: Mixed Lymphocyte Reaction (MLR, T cell assay), 3H-thymidine incorporation; type: cell-based; conditions: for Selectivity Index (SI) MLR/B-cell: ratio of IC50 values
[4] = test system: RPMI1788 cells; test: WST-1 cytotoxicity assay on RPMI1788 cells (B-cell line); type: cell-based, human; conditions: 48 h; mean of 4 independent measures; read-out: Cytotoxicity, WST-1 RPMI 1788 IC 50 (µM) Mean
[5] = test system: Jurkat cells; test: WST-1 cytotoxicity assay on Jurkat cells (T-cell line); type: cell-based, human; conditions: 48 h; mean of 4 independent measures; read-out: Cytotoxicity, WST-1 Jurkat IC 50 (µM) Mean
Procedure: (§1) Compounds were prepared as 10 mM stock solutions in dimethylsulfoxide (DMSO)and were tested at 50-10-1-0.1-0.01 and 0.001 μM in the 4 assays.
(§2) The human B cell line RPMI1788 (American Type Culture Collection, USA) and the human T cell line Jurkat (European Collection of Cell Cultures, ECACC, England) were maintained in RPMI1640 culture medium (BioWhittaker®, Lonza, Verviers, Belgium) containing 10% foetal calf serum (FCS, HyClone® Thermo Scientific, United Kingdom) and 5 μg/mL gentamicin sulphate (BioWhittaker®, Lonza, Verviers, Belgium) at 37°C and 5% CO2.
(§3) WST-1 assays on RPMI-1788 cells and Jurkat cells were performed as follows: 20 μL of test compound dilution were added to each well containing exponential growing cells and the plates were incubated for 48 h at 37°C, 5% CO2. Untreated cells and positive control (1% triton X-100, for the last 15 min) served as reference for maximum and minimum viability. At the end of incubation 100 μL of supernatant were removed and replaced by 10 μL of WST-1 solution (Cell Proliferation Reagent WST-1, Roche Applied Science).

[6] = target: T2, VEGFR2 (Homo sapiens, UniProt P35968); test: Kinase activity test (ReactionBiology), % enzyme activity relative to DMSO; type: biochemical; design: purchased ReactionBiology; conditions: VEGFR2;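 also: VEGFR2 was one member of a ten-kinase screening panel testing marketed FDA-approved drugs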
[7] = target: T2, VEGFR2; test: KINOMEscan competition binding assay, dose response
[8] = WST-1 cytotoxicity assay on RPMI1788 cells (B-cell line); type: cell-based, human; conditions: human, RPMI1788 cells (B-cell line), mean of 4 independent measures, read-out: Cytotoxicity, WST-1 RPMI 1788 IC 50 (µM) Mean
[9] = WST-1 cytotoxicity assay on Jurkat cells (T-cell line); type: cell-based, human; conditions: human, Jurkat cells (T-cell line), mean of 4 independent measures, read-out: Cytotoxicity, WST-1 Jurkat IC 50 (µM) Mean
Procedure: as §1, §2, §3

[10] = target: T3, EPHB4 (Homo sapiens, UniProt P54760); test: Kinase activity test (ReactionBiology), % enzyme activity relative to DMSO; type: biochemical; conditions: EPHB4;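 also: EPHB4 was one of ten selected kinases in the screening panel, with enzyme activity expressed as a percentage of DMSO controls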
T3 construct: purchased ReactionBiology
T3 sequence (P54760 16-987): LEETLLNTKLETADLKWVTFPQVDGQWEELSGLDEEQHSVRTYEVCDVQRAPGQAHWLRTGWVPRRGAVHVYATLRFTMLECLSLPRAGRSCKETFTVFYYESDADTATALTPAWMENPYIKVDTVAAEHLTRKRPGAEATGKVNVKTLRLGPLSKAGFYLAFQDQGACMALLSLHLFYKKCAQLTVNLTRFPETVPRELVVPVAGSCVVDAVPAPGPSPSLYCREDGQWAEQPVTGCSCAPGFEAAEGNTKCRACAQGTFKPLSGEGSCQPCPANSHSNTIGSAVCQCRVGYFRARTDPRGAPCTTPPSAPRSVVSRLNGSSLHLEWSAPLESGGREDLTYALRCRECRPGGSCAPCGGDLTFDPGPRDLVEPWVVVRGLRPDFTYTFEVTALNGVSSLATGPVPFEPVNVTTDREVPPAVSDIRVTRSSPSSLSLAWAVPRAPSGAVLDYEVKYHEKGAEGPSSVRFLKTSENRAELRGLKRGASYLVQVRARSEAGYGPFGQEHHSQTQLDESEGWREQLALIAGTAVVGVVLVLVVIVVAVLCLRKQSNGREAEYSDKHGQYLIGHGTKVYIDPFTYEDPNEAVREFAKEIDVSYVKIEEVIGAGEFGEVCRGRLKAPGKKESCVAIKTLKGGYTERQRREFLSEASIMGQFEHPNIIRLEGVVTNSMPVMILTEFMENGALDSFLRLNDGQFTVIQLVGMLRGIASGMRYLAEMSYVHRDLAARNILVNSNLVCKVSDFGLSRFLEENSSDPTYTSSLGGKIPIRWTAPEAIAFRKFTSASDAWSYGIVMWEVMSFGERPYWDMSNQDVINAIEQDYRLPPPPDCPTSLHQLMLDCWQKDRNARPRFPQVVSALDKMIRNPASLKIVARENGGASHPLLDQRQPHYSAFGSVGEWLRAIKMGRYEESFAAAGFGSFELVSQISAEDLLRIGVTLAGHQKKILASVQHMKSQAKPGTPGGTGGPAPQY

[11] = target: T4, MAP2K2 (Homo sapiens, UniProt P36507); test: as above; type: biochemical
T4 construct: purchased ReactionBiology

[12] = target: T5, CDC7 (Homo sapiens, UniProt O00311); test: as above; type: biochemical;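 also: each drug screened at both 10 µM and 1 µM across a ten-kinase panel, activity expressed as percent of DMSO control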
T5 construct: purchased ReactionBiology

[13] = target: T6, CK1d (Homo sapiens, UniProt P48730); test: as above; type: biochemical; conditions: CK1d
T6 construct: purchased ReactionBiology

[14] = target: T7, NEK2 (Homo sapiens, UniProt P51955); test: as above; type: biochemical;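 also: FDA-approved drugs chosen by structure-based repositioning, each screened at 10 or 1 µM for kinase activity, expressed as percent of DMSO controls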
T7 construct: purchased ReactionBiology
T7 sequence (P51955 1-445): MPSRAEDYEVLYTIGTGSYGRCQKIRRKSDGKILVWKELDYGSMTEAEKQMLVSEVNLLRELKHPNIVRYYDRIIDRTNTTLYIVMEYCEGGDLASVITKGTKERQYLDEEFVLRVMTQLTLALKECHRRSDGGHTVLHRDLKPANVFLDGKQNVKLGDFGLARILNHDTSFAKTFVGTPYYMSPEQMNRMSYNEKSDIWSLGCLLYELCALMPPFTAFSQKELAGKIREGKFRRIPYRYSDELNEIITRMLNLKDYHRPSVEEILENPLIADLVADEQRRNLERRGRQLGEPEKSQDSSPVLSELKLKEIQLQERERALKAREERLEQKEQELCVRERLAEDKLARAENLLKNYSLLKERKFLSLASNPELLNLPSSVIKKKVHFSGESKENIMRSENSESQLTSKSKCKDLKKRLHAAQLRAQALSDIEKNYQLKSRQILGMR

[15] = 1 uM, Average, read-out: % Enzyme Activity (relative to DMSO controls), Average
[16] = 1 uM, replicate Data 1, read-out: % Enzyme Activity (relative to DMSO controls), Data 1
[17] = 1 uM, replicate Data 2, read-out: % Enzyme Activity (relative to DMSO controls), Data 2
[18] = 10 uM, Average, read-out: % Enzyme Activity (relative to DMSO controls), Average
[19] = 10 uM, replicate Data 1, read-out: % Enzyme Activity (relative to DMSO controls), Data 1
[20] = 10 uM, replicate Data 2, read-out: % Enzyme Activity (relative to DMSO controls), Data 2
[21] = Homo sapiens, B-cell, 168 h, IgG production, ODN2006 0.1 μM, 7 days, mean of 4 independent experiments, read-out: B-cell IC50
[22] = Average, read-out: % Enzyme Activity (relative to DMSO controls), Average
[23] = replicate Data 1, read-out: % Enzyme Activity (relative to DMSO controls), Data 1
[24] = replicate Data 2, read-out: % Enzyme Activity (relative to DMSO controls), Data 2
[25] = read-out: % Enzyme Activity (relative to DMSO controls), Average
[26] = read-out: % Enzyme Activity (relative to DMSO controls), Data 1
[27] = read-out: % Enzyme Activity (relative to DMSO controls), Data 2
[28] = read-out: % Enzyme activity at 1μM
[29] = read-out: % Enzyme activity at 10μM

T4 sequence (P36507 whole entry): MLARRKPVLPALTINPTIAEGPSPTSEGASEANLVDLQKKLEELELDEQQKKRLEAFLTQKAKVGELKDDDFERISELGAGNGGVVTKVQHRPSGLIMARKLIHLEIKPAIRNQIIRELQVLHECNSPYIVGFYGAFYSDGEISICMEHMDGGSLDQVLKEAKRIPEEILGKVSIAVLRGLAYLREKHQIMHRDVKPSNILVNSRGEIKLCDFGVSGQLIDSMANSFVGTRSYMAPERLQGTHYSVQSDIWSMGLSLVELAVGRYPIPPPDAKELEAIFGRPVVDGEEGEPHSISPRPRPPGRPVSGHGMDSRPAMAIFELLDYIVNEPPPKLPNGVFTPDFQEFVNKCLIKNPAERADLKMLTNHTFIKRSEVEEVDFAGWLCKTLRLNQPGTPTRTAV
T1 sequence (Q5TCX8 whole entry): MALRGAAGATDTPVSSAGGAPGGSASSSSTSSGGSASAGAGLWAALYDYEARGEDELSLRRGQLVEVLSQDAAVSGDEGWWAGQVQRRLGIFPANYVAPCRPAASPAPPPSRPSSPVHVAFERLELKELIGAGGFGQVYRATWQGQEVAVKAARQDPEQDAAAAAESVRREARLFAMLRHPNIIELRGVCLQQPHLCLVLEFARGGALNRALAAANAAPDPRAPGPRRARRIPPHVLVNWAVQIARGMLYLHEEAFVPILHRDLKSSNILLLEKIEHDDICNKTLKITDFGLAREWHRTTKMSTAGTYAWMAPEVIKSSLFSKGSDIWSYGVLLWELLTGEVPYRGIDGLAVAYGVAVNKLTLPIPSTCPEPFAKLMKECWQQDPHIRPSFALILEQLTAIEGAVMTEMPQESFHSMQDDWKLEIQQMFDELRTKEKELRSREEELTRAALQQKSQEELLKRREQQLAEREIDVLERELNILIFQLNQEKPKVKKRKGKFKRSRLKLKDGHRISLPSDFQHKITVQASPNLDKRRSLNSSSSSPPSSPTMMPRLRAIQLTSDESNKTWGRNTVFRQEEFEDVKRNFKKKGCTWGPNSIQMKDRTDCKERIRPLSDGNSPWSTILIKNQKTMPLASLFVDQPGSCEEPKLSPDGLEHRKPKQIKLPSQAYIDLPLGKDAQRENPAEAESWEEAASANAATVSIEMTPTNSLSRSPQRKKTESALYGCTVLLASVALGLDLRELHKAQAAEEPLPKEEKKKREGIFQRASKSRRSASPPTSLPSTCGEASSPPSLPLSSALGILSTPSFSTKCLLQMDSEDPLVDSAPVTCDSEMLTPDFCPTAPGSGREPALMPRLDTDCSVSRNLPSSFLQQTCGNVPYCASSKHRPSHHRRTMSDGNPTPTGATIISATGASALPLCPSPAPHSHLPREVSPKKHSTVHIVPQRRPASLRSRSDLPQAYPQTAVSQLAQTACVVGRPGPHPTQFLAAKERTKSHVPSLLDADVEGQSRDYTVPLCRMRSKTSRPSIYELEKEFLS
T6 sequence (P48730 whole entry): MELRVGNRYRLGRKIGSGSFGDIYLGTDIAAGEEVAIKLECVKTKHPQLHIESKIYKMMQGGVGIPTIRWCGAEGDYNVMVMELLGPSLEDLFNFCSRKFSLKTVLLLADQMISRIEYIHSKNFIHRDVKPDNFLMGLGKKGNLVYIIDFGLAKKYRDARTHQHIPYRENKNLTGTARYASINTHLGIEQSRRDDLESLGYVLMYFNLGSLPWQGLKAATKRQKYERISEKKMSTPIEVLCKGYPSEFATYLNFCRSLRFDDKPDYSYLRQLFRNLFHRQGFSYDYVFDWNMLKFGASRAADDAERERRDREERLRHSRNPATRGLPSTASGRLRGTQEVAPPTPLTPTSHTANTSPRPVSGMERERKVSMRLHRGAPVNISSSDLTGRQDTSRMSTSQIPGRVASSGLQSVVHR
T5 sequence (O00311 whole entry): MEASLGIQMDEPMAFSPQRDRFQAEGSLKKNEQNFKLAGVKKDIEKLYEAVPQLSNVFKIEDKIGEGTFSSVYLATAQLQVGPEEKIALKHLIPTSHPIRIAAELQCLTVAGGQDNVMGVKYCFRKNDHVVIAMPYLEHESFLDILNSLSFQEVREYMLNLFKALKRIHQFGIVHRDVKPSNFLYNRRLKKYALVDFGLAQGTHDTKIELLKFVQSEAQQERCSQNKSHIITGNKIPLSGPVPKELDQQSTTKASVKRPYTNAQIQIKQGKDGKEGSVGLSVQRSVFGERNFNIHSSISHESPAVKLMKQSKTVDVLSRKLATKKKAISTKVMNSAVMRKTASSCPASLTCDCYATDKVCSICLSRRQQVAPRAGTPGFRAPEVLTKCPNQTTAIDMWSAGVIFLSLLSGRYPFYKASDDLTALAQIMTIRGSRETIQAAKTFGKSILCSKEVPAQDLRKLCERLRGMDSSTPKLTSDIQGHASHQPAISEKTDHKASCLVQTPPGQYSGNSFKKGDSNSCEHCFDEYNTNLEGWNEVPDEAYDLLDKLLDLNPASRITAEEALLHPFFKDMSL
T5 sequence (Q9UBU7 whole entry partner): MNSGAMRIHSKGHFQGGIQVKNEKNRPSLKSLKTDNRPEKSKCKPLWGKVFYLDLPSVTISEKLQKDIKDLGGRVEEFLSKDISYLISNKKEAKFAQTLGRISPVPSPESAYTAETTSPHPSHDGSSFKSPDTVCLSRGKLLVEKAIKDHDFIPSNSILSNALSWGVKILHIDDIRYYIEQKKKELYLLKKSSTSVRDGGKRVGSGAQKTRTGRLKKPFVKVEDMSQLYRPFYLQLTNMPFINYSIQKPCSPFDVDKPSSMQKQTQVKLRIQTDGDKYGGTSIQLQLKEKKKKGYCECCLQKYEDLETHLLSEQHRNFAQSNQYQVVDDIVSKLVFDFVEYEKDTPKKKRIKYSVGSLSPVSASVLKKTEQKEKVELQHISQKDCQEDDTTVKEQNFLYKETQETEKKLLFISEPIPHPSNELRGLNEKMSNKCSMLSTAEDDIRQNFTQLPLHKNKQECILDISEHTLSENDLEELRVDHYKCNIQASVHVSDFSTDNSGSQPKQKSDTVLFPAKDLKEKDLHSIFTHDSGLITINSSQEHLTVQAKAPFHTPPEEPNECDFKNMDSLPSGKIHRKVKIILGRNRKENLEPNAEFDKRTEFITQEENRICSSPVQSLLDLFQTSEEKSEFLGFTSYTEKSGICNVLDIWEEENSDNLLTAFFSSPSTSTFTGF
T2 sequence (P35968 20-1356): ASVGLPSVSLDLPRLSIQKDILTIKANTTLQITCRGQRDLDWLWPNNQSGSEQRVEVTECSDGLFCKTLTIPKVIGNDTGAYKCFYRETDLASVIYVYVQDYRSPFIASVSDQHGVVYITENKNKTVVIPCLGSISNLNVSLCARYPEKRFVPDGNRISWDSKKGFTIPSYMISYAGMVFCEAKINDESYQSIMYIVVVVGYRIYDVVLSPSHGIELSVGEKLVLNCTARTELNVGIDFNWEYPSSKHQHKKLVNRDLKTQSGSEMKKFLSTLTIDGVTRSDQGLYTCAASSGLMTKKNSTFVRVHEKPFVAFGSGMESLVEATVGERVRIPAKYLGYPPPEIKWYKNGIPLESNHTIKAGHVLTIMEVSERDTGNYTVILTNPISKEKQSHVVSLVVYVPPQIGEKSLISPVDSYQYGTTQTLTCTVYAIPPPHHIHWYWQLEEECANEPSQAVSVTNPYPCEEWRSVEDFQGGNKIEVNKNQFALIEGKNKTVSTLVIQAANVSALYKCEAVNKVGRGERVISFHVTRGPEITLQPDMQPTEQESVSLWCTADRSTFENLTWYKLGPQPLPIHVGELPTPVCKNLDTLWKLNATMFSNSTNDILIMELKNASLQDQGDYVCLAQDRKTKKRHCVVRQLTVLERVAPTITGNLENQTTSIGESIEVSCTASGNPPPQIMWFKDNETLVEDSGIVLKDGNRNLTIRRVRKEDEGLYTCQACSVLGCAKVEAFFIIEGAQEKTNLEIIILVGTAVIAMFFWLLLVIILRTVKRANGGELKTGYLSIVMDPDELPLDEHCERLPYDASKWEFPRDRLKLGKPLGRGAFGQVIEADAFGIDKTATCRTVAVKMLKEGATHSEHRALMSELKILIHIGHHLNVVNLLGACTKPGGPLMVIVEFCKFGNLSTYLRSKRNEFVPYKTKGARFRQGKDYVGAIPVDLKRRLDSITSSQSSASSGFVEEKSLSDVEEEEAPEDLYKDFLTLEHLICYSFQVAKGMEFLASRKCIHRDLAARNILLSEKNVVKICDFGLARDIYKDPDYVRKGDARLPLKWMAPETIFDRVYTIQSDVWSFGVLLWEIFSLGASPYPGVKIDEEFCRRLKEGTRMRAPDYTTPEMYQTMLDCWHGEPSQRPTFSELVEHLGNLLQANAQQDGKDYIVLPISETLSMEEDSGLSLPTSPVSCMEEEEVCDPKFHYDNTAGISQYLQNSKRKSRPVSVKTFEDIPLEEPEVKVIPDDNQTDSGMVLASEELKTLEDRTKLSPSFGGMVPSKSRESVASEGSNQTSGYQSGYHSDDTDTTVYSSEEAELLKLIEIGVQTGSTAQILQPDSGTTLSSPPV

For `CC(=O)Nc1nnc(S(N)(=O)=O)s1` [Acetazolamide], the “% Enzyme Activity (relative to DMSO controls), Average” value ([1]; 1 uM) was 106.03%, the “% Enzyme Activity (relative to DMSO controls), Data 1” value ([1]; 1 uM) was 105.08% and the “% Enzyme Activity (relative to DMSO controls), Data 2” value ([1]; 1 uM) was 106.98%. For the same molecule, the “% Enzyme Activity (relative to DMSO controls), Average” value ([1]; 10 uM) was 98.49%, the “% Enzyme Activity (relative to DMSO controls), Data 1” value ([1]; 10 uM) was 99.01% and the “% Enzyme Activity (relative to DMSO controls), Data 2” value ([1]; 10 uM) was 97.97%.
`COc1c(C)c2c(c(O)c1C/C=C(\C)CCC(=O)OCCN1CCOCC1)C(=O)OC2` [Mycophenolate Mofetyl] showed an IC50 ([2]; mean of 4 independent measures, read-out: B-cell efficacy, B cell IC 50 (µM) Mean) of 0.723 µM, an IC50 ([3]; mean of 4 independent measures, read-out: T-cell efficacy, MLR IC 50 (µM) Mean) of 0.121 µM and an IC50 [4] of 0.487 µM. The IC50 [5] was 0.552 µM.
In the case of `NCCC(O)(P(=O)(O)O)P(=O)(O)O` [Pamidronate], the “% Enzyme Activity (relative to DMSO controls), Average” value ([1]; 1 uM) is reported as 79.13%, the “% Enzyme Activity (relative to DMSO controls), Data 1” value ([1]; 1 uM) is reported as 76.76% and the “% Enzyme Activity (relative to DMSO controls), Data 2” value ([1]; 1 uM) is reported as 81.5%. For the same molecule, the “% Enzyme Activity (relative to DMSO controls), Average” value ([1]; 10 uM) was 78.77%, the “% Enzyme Activity (relative to DMSO controls), Data 1” value ([1]; 10 uM) was 82.48% and the “% Enzyme Activity (relative to DMSO controls), Data 2” value ([1]; 10 uM) was 75.06%.
In the case of `Cc1ccc(C(=O)Nc2ccc(S(=O)(=O)O)c3cc(S(=O)(=O)O)cc(S(=O)(=O)O)c23)cc1NC(=O)c1cccc(NC(=O)Nc2cccc(C(=O)Nc3cc(C(=O)Nc4ccc(S(=O)(=O)O)c5cc(S(=O)(=O)O)cc(S(=O)(=O)O)c45)ccc3C)c2)c1` [Suramin, reference compound], the remaining activity at 1 µM [6, 15] is reported as 72.7%, the remaining activity at 1 µM [6, 16] is reported as 73.6% and the remaining activity at 1 µM [6, 17] is reported as 71.8%. For the same molecule, the remaining activity at 10 µM [6, 18] was 6.48%, the remaining activity at 10 µM [6, 19] was 7.02% and the remaining activity at 10 µM [6, 20] was 5.94%. The remaining activity at 1 µM ([6]; compound 1μM, relative to DMSO controls, read-out: % Enzyme activity at 1μM) was 72.7%, the remaining activity at 10 µM ([6]; compound 10μM, relative to DMSO controls, read-out: % Enzyme activity at 10μM) was 6.48% and the IC50 [2, 21] was 35.2 µM. The IC50 ([3]; Homo sapiens, RPMI-1788, mean of 4 independent measures, read-out: T-cell efficacy, MLR IC 50 (µM) Mean) was 29.8 µM, the “Selectivity Index (SI) MLR/B-cell” value [3] was 0.85 and the Kd [7] was 25 µM. For the same molecule, the IC50 at 48 h [8] was greater than 50 µM and the IC50 at 48 h [9] was greater than 50 µM.
Molecule `Oc1cc(Cl)ccc1Oc1ccc(Cl)cc1Cl` [Triclosan, reference compound] has a remaining activity at 1 µM [10, 22] of 100%, a remaining activity at 1 µM [10, 23] of 101% and a remaining activity at 1 µM [10, 24] of 99.9%. The remaining activity at 10 µM [10, 22] was 97.4%, the remaining activity at 10 µM [10, 23] was 97.3% and the remaining activity at 10 µM [10, 24] was 97.4%. It also gave a remaining activity at 1 µM [11, 25] of 97.6%, a remaining activity at 10 µM [11, 25] of 96% and a remaining activity at 1 µM [11, 26] of 95.3%. The remaining activity at 10 µM [11, 26] was 95%, the remaining activity at 1 µM [11, 27] was 99.8% and the remaining activity at 10 µM [11, 27] was 97.1%. The remaining activity at 1 µM [6, 15] was 111%, the remaining activity at 1 µM [6, 16] was 108% and the remaining activity at 1 µM [6, 17] was 114%. For the same molecule, the remaining activity at 10 µM [6, 18] was 101%, the remaining activity at 10 µM [6, 19] was 103% and the remaining activity at 10 µM [6, 20] was 99.9%. It also gave a remaining activity at 1 µM [12, 25] of 70.5%, a remaining activity at 10 µM [12, 25] of 65.4% and a remaining activity at 1 µM [12, 26] of 68.2%. For the same molecule, the remaining activity at 10 µM [12, 26] was 71.2%, the remaining activity at 1 µM [12, 27] was 72.7% and the remaining activity at 10 µM [12, 27] was 59.7%. For the same molecule, the remaining activity at 1 µM [12, 28] was 70.5%, the remaining activity at 10 µM [12, 29] was 65.4% and the IC50 [2, 21] was 20.9 µM. The remaining activity at 1 µM [13, 22] was 96.6%, the remaining activity at 1 µM [13, 23] was 94.8% and the remaining activity at 1 µM [13, 24] was 98.3%. It also gave a remaining activity at 10 µM [13, 22] of 96.9%, a remaining activity at 10 µM [13, 23] of 97.8% and a remaining activity at 10 µM [13, 24] of 96%. It also gave a remaining activity at 1 µM [14, 25] of 99.2%, a remaining activity at 10 µM [14, 25] of 64.6% and a remaining activity at 1 µM [14, 26] of 98.5%. For the same molecule, the remaining activity at 10 µM [14, 26] was 68.9%, the remaining activity at 1 µM [14, 27] was 99.8% and the remaining activity at 10 µM [14, 27] was 60.4%. It also gave a remaining activity at 1 µM [14, 28] of 99.2%, a remaining activity at 10 µM [14, 29] of 64.6% and an IC50 ([3]; Homo sapiens, RPMI-1788, read-out: T-cell efficacy, MLR IC 50 (µM) Mean) of 34.3 µM. For the same molecule, the “Selectivity Index (SI) MLR/B-cell” value [3] was 1.64, the IC50 at 48 h [8] was 27.7 µM and the IC50 at 48 h [9] was 26.2 µM.
